Structures are written as SMILES.

Data on 24 compounds can be found in patent US20240109910A1, “HEXAHYDRO-5,8-EPOXYCYCLOHEPTA[c]PYRAZOLE DERIVATIVES USEFUL AS MODULATORS OF THE CB1 AND / OR CB2 RECEPTORS” (JANSSEN PHARMACEUTICA NV, priority 2019, published 2024).

In one assay the target is hCB1 receptor (Homo sapiens, UniProt P21554). Put plainly: Agonism of CB1 by detection of cAMP using HTRF. The settings on record: CHO cells stably expressing CB1 receptor; for EC50: cAMP HTRF, forskolin-stimulated, average if tested more than once, read-out: hCB1 CHO EC50; for Emax: normalized to DMSO and maximal activation (5 nM CP55940). Format: cell-based. The method, then:
(§1) Method for Assaying Agonism of CB1 or CB2 by Detection of cAMP Using Homogeneous Time-Resolved Fluorescence (HTRF®)
(§2) CHOP-K1 cells stably expressing the CB1 receptor (PerkinElmer, ES-110-C) or the CB2 receptor (PerkinElmer, ES-111-CF) were seeded into 384 well white TC-treated plates (Greiner 781080) at 7000 cells per well in Ham's media (Gibco #31765-035) supplemented with 10% FBS (Gibco #16000-044) and 500 μg/mL Geneticin (Gibco #10131-027) and cultured overnight. The next day, plates were washed one time in assay buffer (HBSS with Ca^2+ and Mg^2+ (Corning #21-023-CV)+20 mM HEPES (Corning #25-060-Cl) and 0.01% BSA (Sigma A2153)). In a separate compound plate (Greiner 781201-906), 50 nL of test compound or DMSO was transferred using the Echo 550 (Labcyte), then 40 μL/well of assay buffer with 0.5 mM IBMX, 2 μM Forskolin (Sigma F3917), and 0.01% BSA was added. For the CB1 assay, assay buffer was dumped from the cell plate and fresh assay buffer containing 0.5 mM IBMX (Sigma I5679) was added at 30 μL/well, and the plate was incubated for 1 hr at 37° C., 5% CO2. Following the IBMX pre-treatment step, buffer was dumped from the cell plate, and 20 μL/well of the assay buffer with test compound was transferred into the cell plate with a subsequent incubation of 20 min at room temperature. Reagents for cAMP detection (cisbio 62AM4PEJ) were prepared and subsequently transferred to the cell plate at 20 μL/well. Following a 1 hr incubation at room temperature, the plate was read on the Pherastar FX (BMG, excitation 320 nm, detection at 620 nm (donor) and 665 nm (acceptor)). The ratio of signal at 665 nm/620 nm was determined for each well in the plate. For each assay day, a cAMP standard curve was run in parallel to assess the range of response and determine the concentration of cAMP in each well. Control wells (n=16 of each) with no activation of CB1 receptor (DMSO) and maximal activation (5 nM CP55940, Sigma) were used to normalize the data and to determine signal-to-background ratio and Z′. For the CB2 assay, conditions were as described above for the CB1 assay, except that the IBMX preincubation step was not used and that the 20 min compound incubation step occurred in the incubator at 37° C., 5% CO2.
(§3) EC50 values were calculated from dose response curves by nonlinear regression analysis using PRISM software.
(§4) Representative compounds of the present invention were tested according to the procedures described in Biological Example 1 above, with results as listed in Table 3, below. If a compound was tested more than once (due to multiple samples or batches), then the value listed in Table 3 below represents the average of the measured values.
Background: Time-resolved FRET reads energy transfer from a long-lived donor to a nearby acceptor.

Another assay has as its target hCB2 receptor (Homo sapiens, UniProt P34972). Put plainly: Agonism of CB2 by detection of cAMP using HTRF. Format: cell-based. The settings on record: CHO cells stably expressing CB2 receptor; for EC50: cAMP HTRF, forskolin-stimulated, average if tested more than once, read-out: hCB2 CHO EC50; for Emax: normalized to DMSO and maximal activation (5 nM CP55940). The method, then: as §1, §2, §3, §4

Sequence of hCB1 receptor (P21554 whole entry): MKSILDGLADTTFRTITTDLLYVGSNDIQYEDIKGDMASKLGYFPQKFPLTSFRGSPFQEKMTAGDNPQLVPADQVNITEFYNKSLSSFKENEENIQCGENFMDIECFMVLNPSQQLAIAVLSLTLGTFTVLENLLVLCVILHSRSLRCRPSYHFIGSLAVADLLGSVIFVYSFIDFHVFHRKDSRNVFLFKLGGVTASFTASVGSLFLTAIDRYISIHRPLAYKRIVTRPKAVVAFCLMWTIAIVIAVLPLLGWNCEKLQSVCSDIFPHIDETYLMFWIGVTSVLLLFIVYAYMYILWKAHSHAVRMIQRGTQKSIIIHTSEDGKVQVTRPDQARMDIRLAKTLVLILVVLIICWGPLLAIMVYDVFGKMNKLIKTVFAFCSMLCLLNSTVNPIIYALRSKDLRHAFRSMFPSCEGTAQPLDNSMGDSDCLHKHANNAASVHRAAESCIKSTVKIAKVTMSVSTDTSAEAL
Sequence of hCB2 receptor (P34972 whole entry): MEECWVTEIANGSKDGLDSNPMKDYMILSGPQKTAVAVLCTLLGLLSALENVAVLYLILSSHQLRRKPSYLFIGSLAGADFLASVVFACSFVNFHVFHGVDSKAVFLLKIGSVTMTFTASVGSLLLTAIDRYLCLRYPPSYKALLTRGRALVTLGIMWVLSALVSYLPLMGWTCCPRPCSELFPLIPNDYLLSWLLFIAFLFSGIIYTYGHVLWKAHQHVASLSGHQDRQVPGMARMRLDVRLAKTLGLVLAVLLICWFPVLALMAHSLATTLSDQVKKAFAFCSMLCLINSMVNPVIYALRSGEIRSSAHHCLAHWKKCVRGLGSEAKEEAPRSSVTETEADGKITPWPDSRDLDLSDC

On to `O=C(NC12CC(C1)C2)c1nn(-c2cnccn2)c2c1CC1CCC2O1` (stereo not shown) [Compound 12, N-(bicyclo[1.1.1]pentan-1-yl)-1-(pyrazin-2-yl)-1,4,5,6,7,8-hexahydro-5,8-epoxycyclohepta[c]pyrazole-3-carboxamide], for which, at hCB1 receptor, the EC50 (as a rule, the concentration needed to bring the measured effect to its halfway point) came out at 1510 nM and the Emax – broadly, the size of the effect at its maximum, as opposed to the concentration needed – worked out at 90.8%. Moreover, on hCB2 receptor, the EC50 came to 0.24 nM and the Emax came out at 99.5%.

On to `CC(C)(C)c1noc(-c2nn(-c3cnccn3)c3c2CC2CCC3O2)n1` (stereo not shown) [Compound 37, 3-(3-(tert-butyl)-1,2,4-oxadiazol-5-yl)-1-(pyrazin-2-yl)-1,4,5,6,7,8-hexahydro-5,8-epoxycyclohepta[c]pyrazole], for which the concentration giving a half-maximal response (EC50) at hCB1 receptor came to 177 nM; at hCB2 receptor, 0.22 nM. In addition, the results for the Emax at hCB1 receptor and on hCB2 receptor were 34.8% and 99.2%, respectively.

As to `CC(C)(CO)NC(=O)c1nn(-c2cnccn2)c2c1CC1CCC2O1` (stereo not shown) [Compound 11, N-(1-hydroxy-2-methylpropan-2-yl)-1-(pyrazin-2-yl)-1,4,5,6,7,8-hexahydro-5,8-epoxycyclohepta[c]pyrazole-3-carboxamide], on hCB2 receptor, the EC50 came to 7.1 nM and the Emax was found to be 99.2%.

Turning to `CC(C)(C)NC(=O)c1c2c(nn1-c1ccc(F)cc1F)C1CCC(C2)O1` (stereo not shown) [Compound 2, N-(tert-butyl)-2-(2,4-difluorophenyl)-2,4,5,6,7,8-hexahydro-5,8-epoxycyclohepta[c]pyrazole-3-carboxamide], at hCB2 receptor, the half-maximal effective concentration (EC50) was found to be 2980 nM and the Emax turned out to be 72.8%.

On to `CC(C)(C)c1csc(-c2nn(-c3c[n+]([O-])ccn3)c3c2CC2CCC3O2)n1` (stereo not shown) [Compound 44, 3-(3-(4-(tert-butyl)thiazol-2-yl)-5,6,7,8-tetrahydro-5,8-epoxycyclohepta[c]pyrazol-1(4H)-yl)pyrazine 1-oxide], for which, on hCB2 receptor, the EC50 stood at 46.3 nM and the Emax stood at 84.6%.

Turning to `CC(C)(C)c1nnc(-c2nn(-c3c[n+]([O-])ccn3)c3c2CC2CCC3O2)[s+]1[O-]` (stereo not shown) [Compound 28, 3-(3-(5-(tert-butyl)-1-oxido-1,3,4-thiadiazol-2-yl)-5,6,7,8-tetrahydro-5,8-epoxycyclohepta[c]pyrazol-1(4H)-yl)pyrazine 1-oxide], on hCB2 receptor, the EC50 was found to be 0.74 nM and the Emax is 99%.

In the case of `O=C(NC1(C(F)(F)F)CC1)c1nn(-c2c[n+]([O-])ccn2)c2c1CC1CCC2O1` (stereo not shown) [Compound 17, 3-(3-((1-(trifluoromethyl)cyclopropyl)carbamoyl)-5,6,7,8-tetrahydro-5,8-epoxycyclohepta[c]pyrazol-1(4H)-yl)pyrazine 1-oxide], on hCB2 receptor, the EC50 was determined as 0.12 nM and the maximum response (Emax) is 100%.

For `CC(C)(C)NC(=O)c1nn(-c2ccc(F)cc2F)c2c1C1CCC(C2)O1` (stereo not shown) [Compound 47], on hCB2 receptor, the EC50 worked out at 559 nM and the Emax came to 82.5%.

Turning to `CC(C)(C)NC(=O)c1c2c(nn1-c1cnccn1)C1CCC(C2)O1` (stereo not shown) [Compound 4, N-(tert-butyl)-2-(pyrazin-2-yl)-2,4,5,6,7,8-hexahydro-5,8-epoxycyclohepta[c]pyrazole-3-carboxamide], on hCB2 receptor, the EC50 worked out at 4070 nM and the Emax was found to be 75.8%.

Consider `CCC(C)(C)c1noc(-c2nn(-c3cnccn3)c3c2CC2CCC3O2)n1` (stereo not shown) [Compound 36, 3-(3-(tert-pentyl)-1,2,4-oxadiazol-5-yl)-1-(pyrazin-2-yl)-1,4,5,6,7,8-hexahydro-5,8-epoxycyclohepta[c]pyrazole], for which, on hCB2 receptor, the EC50 was found to be 0.04 nM and the Emax was 99.8%.

As to `CC(C)(C)c1nc(-c2nn(-c3cnccn3)c3c2CC2CCC3O2)no1` (stereo not shown) [Compound 32, 3-(5-(tert-butyl)-1,2,4-oxadiazol-3-yl)-1-(pyrazin-2-yl)-1,4,5,6,7,8-hexahydro-5,8-epoxycyclohepta[c]pyrazole], at hCB2 receptor, the EC50 worked out at 0.33 nM and the Emax was found to be 100%.

Consider `CC(C)(C)NC(=O)c1c2c(nn1-c1c[n+]([O-])ccn1)CC1CCC2O1` (stereo not shown) [Compound 49], for which, on hCB2 receptor, the EC50 was determined as 2670 nM and the Emax stood at 80.3%.

On to `CC(C)(C)NC(=O)c1c2c(nn1-c1c[n+]([O-])ccn1)C1CCC(C2)O1` (stereo not shown) [Compound 30, 3-(3-(tert-butylcarbamoyl)-5,6,7,8-tetrahydro-5,8-epoxycyclohepta[c]pyrazol-2(4H)-yl)pyrazine 1-oxide], for which, at hCB2 receptor, the EC50 came out at 7970 nM and the Emax worked out at 66.3%.

For `CC(C)(CO)NC(=O)c1nn(-c2c[n+]([O-])ccn2)c2c1CC1CCC2O1` (stereo not shown) [Compound 19, 3-(3-((1-hydroxy-2-methylpropan-2-yl)carbamoyl)-5,6,7,8-tetrahydro-5,8-epoxycyclohepta[c]pyrazol-1(4H)-yl)pyrazine 1-oxide], at hCB2 receptor, the EC50 came out at 1 nM and the maximal response (Emax) is 100%.

In the case of `O=C(NC1(C(F)(F)F)CC1)c1nn(-c2cnccn2)c2c1CC1CCC2O1` (stereo not shown) [Compound 9, 1-(pyrazin-2-yl)-N-(1-(trifluoromethyl)cyclopropyl)-1,4,5,6,7,8-hexahydro-5,8-epoxycyclohepta[c]pyrazole-3-carboxamide], on hCB2 receptor, the concentration giving a half-maximal response (EC50) was 0.24 nM and the Emax was 100%.

As for `CC(C)(C)c1nnc(-c2nn(-c3cnccn3)c3c2CC2CCC3O2)o1` (stereo not shown) [Compound 39, 3-(5-(tert-butyl)-1,3,4-oxadiazol-2-yl)-1-(pyrazin-2-yl)-1,4,5,6,7,8-hexahydro-5,8-epoxycyclohepta[c]pyrazole], at hCB2 receptor, the EC50 is 0.26 nM and the Emax came out at 100%.

For the compound `CC(C)(C)c1nc(-c2nn(-c3c[n+]([O-])ccn3)c3c2CC2CCC3O2)no1` (stereo not shown) [Compound 23, 3-(3-(5-(tert-butyl)-1,2,4-oxadiazol-3-yl)-5,6,7,8-tetrahydro-5,8-epoxycyclohepta[c]pyrazol-1(4H)-yl)pyrazine 1-oxide], at hCB2 receptor, the EC50 was 0.1 nM and the Emax stood at 100%.

With `CC(C)(C)NC(=O)c1nn(-c2c[n+]([O-])ccn2)c2c1C1CCC(C2)O1` (stereo not shown) [Compound 48], at hCB2 receptor, the EC50 was found to be 1.98 nM and the maximum response (Emax) stood at 99.9%.

For the compound `CC(C)(C)NC(=O)c1c2c(nn1-c1cnccn1)CC1CCC2O1` (stereo not shown) [Compound 46], on hCB2 receptor, the half-maximal effective concentration (EC50) came to 1650 nM and the Emax came out at 85.8%.

Turning to `CC(C)(C)c1cnc(-c2nn(-c3cnccn3)c3c2CC2CCC3O2)s1` (stereo not shown) [Compound 34, 3-(5-(tert-butyl)thiazol-2-yl)-1-(pyrazin-2-yl)-1,4,5,6,7,8-hexahydro-5,8-epoxycyclohepta[c]pyrazole], on hCB2 receptor, the EC50 stood at 0.24 nM and the Emax came out at 99.7%.

As for `CC(C)(C)NC(=O)c1nn(-c2cnccn2)c2c1C1CCC(C2)O1` (stereo not shown) [Compound 45], on hCB2 receptor, the EC50 was found to be 22.9 nM and the Emax was determined as 98.1%.

Take `CC(C)(C)[C@@H](CO)NC(=O)c1nn(-c2c[n+]([O-])ccn2)c2c1C[C@@H]1CC[C@H]2O1` [Compound 15, 3-((5S,8R)-3-(((S)-1-hydroxy-3,3-dimethylbutan-2-yl)carbamoyl)-5,6,7,8-tetrahydro-5,8-epoxycyclohepta[c]pyrazol-1(4H)-yl)pyrazine 1-oxide]: at hCB2 receptor, the EC50 worked out at 0.34 nM and the Emax was 101%.

Take `CC(C)(C)[C@@H](CO)NC(=O)c1nn(-c2cnccn2)c2c1C[C@@H]1CC[C@H]2O1` [Compound 7, (5S,8R)-N-((S)-1-hydroxy-3,3-dimethylbutan-2-yl)-1-(pyrazin-2-yl)-1,4,5,6,7,8-hexahydro-5,8-epoxycyclohepta[c]pyrazole-3-carboxamide]: on hCB2 receptor, the EC50 is 0.56 nM and the Emax was 100%.

As to `CC(C)(C)c1cnc(-c2nn(-c3cnccn3)c3c2CC2CCC3O2)o1` (stereo not shown) [Compound 40, 3-(5-(tert-butyl)oxazol-2-yl)-1-(pyrazin-2-yl)-1,4,5,6,7,8-hexahydro-5,8-epoxycyclohepta[c]pyrazole], at hCB2 receptor, the EC50 is 0.13 nM and the Emax is 99.7%.
